From patent publication US20110189095A1, “CRKL TARGETING PEPTIDES” (The Board of Regents, of the University of Texas System, priority 2008, published 2011)
Ends that are not written are not given here.

Experiments:
CRKL secretion = CRKL secretion inhibition study (immunoprecipitation from serum-free medium); format: cell-based; details: cells incubated with compound in serum-free medium for 9 hours
Protocol: Cells were synchronized for 24-48 hours in RPMI serum-free medium followed by a spin and filtration through a 0.22 μm filter, and pre-absorbed to control antibodies. An equal volume of PBS was added to the recovered supernatant prior to immunoprecipitating with the appropriate antibodies. Brefeldin A, glybenclamide, and thapsigargin were used for secretion inhibition studies. Cells were incubated with the compounds in serum-free medium for 9 hours prior to immunoprecipitation with the appropriate antibodies. No detergents were used in the immunoprecipitation studies. By using the methodology described above, CRKL is found in a free soluble state and not in vesicles.

[1] = system: KS1767 and DU145 human tumor xenografts and EF43-FGF4 mouse mammary carcinoma; assay: In vivo homing of targeted or control phage in mice bearing different tumor types; details: systemic administration; KS1767, DU145 and EF43-FGF4 models
Protocol: The tumor targeting attributes of CRKL-binding phage in tumor-bearing mice was evaluated next. First, phage constructs displaying either the selected CRKL-binding peptide or a panel of control (mutant or scrambled) peptides were designed and produced. Phage clones were tested in human tumor xenografts (Kaposi sarcoma KS1767 cells and prostate carcinoma DU145 cells) and an isogenic mouse tumor model (EF43-FGF4 mammary carcinoma).
In vivo targeting experiments with phage were performed as described (Hajitou et al., 2006; Arap et al., 1998; Arap et al., 2004; Kolonin et al., 2004; Marchio et al., 2004). Animals used in experiments were: Male nude mice bearing human DU145 xenografts or female nude mice with human Kaposi sarcoma KS1767-derived xenografts subcutaneously and immunocompetent Balb/c female mice bearing EF43-FGF4-derived breast tumors orthotopically in the mammary fat pad. Briefly, mice bearing tumors (˜8 mm) were anesthetized and injected intravenously via tail vein with 5×10^10 T.U. per mouse of wild-type […] (SEQ ID NO:1)-phage, or negative controls: fd-tet phage (insertless) and scrambled […] (SEQ ID NO:26)-phage, […] (SEQ ID NO:27)-phage, […] (SEQ ID NO:29)-phage, […] (SEQ ID NO:30)-phage or mutants […] (SEQ ID NO:25)-phage and […] (SEQ ID NO:28)-phage. Cohorts of two mice with size-matched tumors received each set of phage clones. After 24 hours, tumors were dissected from each mouse and phage recovered by bacterial infection and normalized by weight of tissue. The experiments were repeated twice for each tumor model. […] The fd phage served a negative control and the RGD-4C (Hajitou et al., 2006; Arap et al., 1998) served as a positive control. Only minimal background apoptosis (<1% of the total cells) were detected by TUNEL staining (Promega) on paraffin-embedded tumor tissue sections.

[2] = biological target: CRKL binding to β1 integrin (Homo sapiens, UniProt P46109); assay: Protein-protein interaction between CRKL and β1 integrin, inhibition assay
Protocol: Phage binding assays on purified proteins were carried out as described (Giordano et al. 2001). Recombinant proteins were coated on microtiter wells as previous described (Cardo-Vila et al., 2003; Smith and Scott, 1993). Briefly, proteins were immobilized on microtiter wells overnight at 4° C. 50 μl of 1 μg/ml in PBS. Wells were washed twice with PBS, blocked with PBS containing 3% BSA for 2 hours at room temperature, and incubated with 10^9 T.U. wild-type tumor-homing phage ([…]; SEQ ID NO:1), scrambled phage ([…] (SEQ ID NO:26), […] (SEQ ID NO:27), […] (SEQ ID NO:29), […] (SEQ ID NO:30)), mutant phage ([…] (SEQ ID NO:25), […] (SEQ ID NO:28)), PSI-derived cyclic phage (CNSTFLQEGMPTSAC; SEQ ID NO:23) or fd-tet phage in 50 μl of PBS containing 1.5% BSA. After 1 hour at room temperature, wells were washed ten times with PBS and phage were recovered by bacterial infection. ELISA with polyclonal anti-CKRL confirmed the presence and concentration of the CKRL recombinant proteins on the wells. […] After 3 hours, binding of CKRL to integrins was detected by using an anti-CKRL antibody followed by an HRP-conjugated anti-rabbit IgG. […]

[3] = system: human prostate cancer xenografts (DU145-derived); assay: Therapy in tumor-bearing mice (tumor volume); format: in vivo, nude mice; details: equimolar amounts, systemically administered, vs untreated or vehicle
Text: Finally, a pilot pre-clinical trial that included four cohorts of size-matched tumor-bearing mice was designed and conducted (FIG. 11). Animals received the following reagents: (i) the synthetic PSI domain-mimic peptide, (ii) the synthetic PSI domain-mimic peptide linked to a pro-apoptotic peptidomimetic (Arap et al., 2004; Ellerby et al., 1999; Kolonin et al., 2004; Zurita et al., 2004) in order to induce targeted apoptosis upon receptor-mediated internalization, (iii) the synthetic pro-apoptotic peptidomimetic alone, or (iv) vehicle alone. All peptides or peptidomimetics were administered at equimolar concentrations.
DU145 tumor-bearing mice were size-matched and divided into individual cohorts (n=4 mice per group). The tumor-homing peptide […] (SEQ ID NO:1) was synthesized fused with the proapoptotic motif D(KLAKLAK)2. Unconjugated peptide […] (SEQ ID NO:1) or D(KLAKLAK)2 served as controls. The synthetic peptides were systemically administered and tumor volumes measured as described (Arap et al., 1998; Arap et al., 2004).

rCRKL = biological target: T1, rCRKL (Homo sapiens, UniProt P46109); assay: Peptide binding assay with recombinant His-tag proteins (ELISA); details: peptide coated on microtiter plates
T1 construct: The open reading frame of full-length CRKL cDNA (Invitrogen) was PCR-amplified and cloned in a pET28a (Novagen) expression vector; His-tag; made in house; host or cells: E. coli BL21
Protocol: (§1) Synthetic tumor-homing peptide ([…]; SEQ ID NO:1) or PSI-derived peptide (NSTFLQEGMPTSA; SEQ ID NO:23) were coated on microtiter plates followed by blocking, and washing. The following recombinant His-tag proteins were added to the coated plates: rCRKL, rCRKL-SH2 domain, rCRKL-SH3 (N) domain, and rCRKL-SH3 (C) domain. An unrelated control protein (α2-Heremans-Schmid glycoprotein; AHSG) served as a negative control. The mixtures were incubated, washed, and labeled with the appropriate antibodies. Secondary antibodies conjugated to horse-radish peroxidase (HRP) were added followed by adding TMB substrate (Calbiochem), and analyzed by an automated ELISA reader (Bio-Tek). To determine the inhibitory activity of the tumor-homing peptide, the PSI-derived peptide, or the phage clone displaying the corresponding tumor-homing peptide were incubated with the rCRKL-SH3 (C) domain. Unrelated cyclic peptide sequences and insertless phage (fd-tet) served as negative controls. The admixtures were incubated and added to wells coated with the tumor-homing peptide. After incubation, the wells were washed, labeled with the appropriate antibodies, and processed as above.

rCRKL-SH3 (C) domain [4] = biological target: T2, rCRKL-SH3 (C) domain (Homo sapiens, UniProt P46109); assay: as above; details: peptide coated on microtiter plates
T2 construct: cDNAs corresponding to each of the SH domains were PCR-amplified and cloned into the Sac I and Xho I restriction sites; His-tag; made in house; host or cells: E. coli BL21
Protocol: as §1

rCRKL-SH3 (N) domain = biological target: T3, rCRKL-SH3 (N) domain (Homo sapiens, UniProt P46109); assay: as above; details: peptide coated on microtiter plates
T3 construct: cDNAs corresponding to each of the SH domains were PCR-amplified and cloned into the Sac I and Xho I restriction sites; His-tag; made in house; host or cells: E. coli BL21
Protocol: as §1

rCRKL-SH3 (C) domain [5] = biological target: T2, rCRKL-SH3 (C) domain; assay: Inhibition of rCRKL-SH3 (C) domain binding to coated tumor-homing peptide; details: inhibitor pre-incubated with rCRKL-SH3 (C)
Protocol: as §1

DU145 cells = assay: Peptide internalization assay (WST-1 cell viability, annexin-V staining); format: cell-based, human
Protocol: The internalization capability of the tumor-homing peptide fused through a glycinylglycine bridge to a pro-apoptotic sequence was tested as described Arap et al., 2004; Ellerby et al., 1999; Kolonin et al., 2004; Zurita et al., 2004). The conjugated tumor-homing peptide, […] (SEQ ID NO:67)-D(KLAKLAK)2 or the untargeted control peptide D(KLAKLAK)2 were synthesized and increasing equimolar peptide concentrations were added to the DU145 cells. Cell viability was assayed by the WST-1 reagent (Roche) and annexin-V staining for apoptosis (Zurita et al., 2004; Cardo-Vila et al., 2003). For tumor-homing phage localization studies, cells were incubated with 10^9 T.U. tumor-homing ([…]; SEQ ID NO:1) or a negative control (fd-tet) phage for 6 and 24 hours. Wells were washed with 20 mM glycine to remove non-specific cell surface bound phage and then fixed with 4% paraformaldehyde. The non-permeabilized cells were incubated with rabbit anti-fd bacteriophage antibody (Sigma) for 2 hours at room temperature followed by 1 hour incubation with Cy3-labeled anti-rabbit IgG antibody (Jackson ImmunoResearch). Cells were again fixed with 4% paraformaldehyde and mounted in the presence of DAPI (Vector Laboratories) and images were acquired with an Olympus fluorescence microscope.

Sequence of CRKL binding to β1 integrin (P46109 whole entry): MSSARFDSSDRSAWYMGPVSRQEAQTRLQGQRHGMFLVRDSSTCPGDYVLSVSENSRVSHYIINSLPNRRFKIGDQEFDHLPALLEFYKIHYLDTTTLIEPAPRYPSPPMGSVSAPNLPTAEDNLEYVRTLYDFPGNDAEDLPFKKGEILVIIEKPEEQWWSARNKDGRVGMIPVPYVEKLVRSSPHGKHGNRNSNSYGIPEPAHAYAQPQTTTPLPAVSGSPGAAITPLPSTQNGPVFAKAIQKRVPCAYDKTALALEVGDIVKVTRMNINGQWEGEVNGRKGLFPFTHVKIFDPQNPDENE
T2 sequence (P46109 235-296 limits assumed): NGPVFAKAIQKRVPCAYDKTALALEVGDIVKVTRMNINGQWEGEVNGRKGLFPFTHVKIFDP
T1 sequence (P46109 whole entry): as the sequence (P46109 whole entry) above
T3 sequence (P46109 123-183 limits assumed): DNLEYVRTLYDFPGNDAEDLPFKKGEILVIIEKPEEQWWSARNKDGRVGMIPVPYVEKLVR

C[C@H]1CCC/C=C/[C@@H]2C[C@H](O)C[C@H]2[C@H](O)/C=C/C(=O)O1 [brefeldin A] was tested, and the “CRKL secretion / release” value (CRKL secretion) was “do not appear to inhibit”.
With COc1ccc(Cl)cc1C(=O)NCCc1ccc(S(=O)(=O)NC(=O)NC2CCCCC2)cc1 [glybenclamide] the “CRKL secretion / release” value (CRKL secretion) was “does prevent”.
In the case of C/C=C(/C)C(=O)O[C@H]1C(C)=C2[C@H]([C@@H]1OC(=O)CCCCCCC)[C@@](C)(OC(C)=O)C[C@H](OC(=O)CCC)[C@@]1(O)[C@H]2OC(=O)[C@@]1(C)O [thapsigargin], the “CRKL secretion / release” value (CRKL secretion) is reported as “do not appear to inhibit”.
In the case of YRECTDSPHEFHLWNTMCAF, the “tumor homing / tumor targeting” value [1] is reported as “no tumor targeting”.
YRCTLNSAFFWEDMTHECHA was tested, and the “tumor homing / tumor targeting” value [1] was “no tumor targeting”.
For “gst-PSI: recombinant gst fusion protein of the entire PSI domain of β1 integrin (CLKANAKSCGECIQAGPNCGWCTNSTFLQEGMPTSARCDDLEALKKKGC; cysteine pairing not given here; also: N-terminal GST fusion, not written)”, the “inhibition of CRKL binding to β1 integrin” value ([2]; up to 800 ηm) was “concentration-dependent inhibition” and the IC50 ([2]; wells coated with α5β1 integrin) was 20 nM.
With D(KLAKLAK)2 [reference compound] the “tumor growth / tumor volume” value [3] was “no differences in tumor volume”.
For YRFCTSPFHEWHLENTDMCA, the “tumor homing / tumor targeting” value [1] was “no tumor targeting”.
With YRCETDSPHEFHLWNTFCAM the “tumor homing / tumor targeting” value [1] was “no tumor targeting activity”.
For YRCTLNSPAAAEDMTHECHA, the “tumor homing / tumor targeting” value [1] was “no tumor targeting activity”.
In the case of YRCETDSPHEFHLWNTMCAF, the “tumor homing / tumor targeting” value [1] is reported as “no tumor targeting activity”.
With “NSTFLQEGMPTSA (listed as Homo sapiens) [synthetic peptide derived from the native PSI domain of β1 integrin, residues 50 to 62]” the “binding to rCRKL” value (rCRKL) was “bound”, the “binding to rCRKL-SH3 (C) domain” value (rCRKL-SH3 (C) domain [4]) was “bound” and the “binding to rCRKL-SH3 (N) domain” value (rCRKL-SH3 (N) domain) was “bound”. The “inhibition of binding of the tumor-homing peptide to rCRKL-SH3 (C) domain” value (rCRKL-SH3 (C) domain [5]) was “inhibited”.
In the case of “YRCTLNSPFFWEDMTHECHAGG (SEQ ID NO:67)-D(KLAKLAK)2”, the “programmed cell death (annexin-V staining)” value (DU145 cells; DU145 cells) is reported as “Programmed cell death was confirmed”, the internalization (DU145 cells; DU145 cells, measured by cell viability and annexin-V) is reported as “enables internalization” and the “cell killing (cell viability, WST-1)” value (DU145 cells; increasing equimolar concentrations, control D(KLAKLAK)2) is reported as “Targeted cell killing relative to controls”. The “tumor growth / tumor volume” value [3] was “Markedly reduced tumor growth” and the “tumor growth / tumor volume” value ([3]; listed as targeted pro-apoptotic peptidomimetic) was “significantly inhibited”.
